Laboratory results reported in patent KR20230001519A, “근위 단백질 변형 반응을 이용한 신규한 약물 결합 단백질의 동정” (서울대학교산학협력단, priority 2021, dated 2023).
Counter-ions that a name gives are not always drawn. Values belong to the compound of their own block, whether it stands above or below them.

Experiments:
K562 cells (K562 세포) = assay: CCK-8 growth inhibition, K562; type: cell-based, human; details: K562, 72 h
[1] = test system: HaloTag protein (할로택 단백질); assay: In vitro competition assay of HaloTag ligand (dansyl-HTL, in-gel fluorescence); type: binding; details: competition with dansyl-HTL; purified HaloTag 10 μM, compound 10 μM; data not shown
Ba/F3 cells (Ba/F3 세포) = assay: CCK-8 growth inhibition, Ba/F3; type: cell-based, mouse; details: Ba/F3, 72 h
KDABL1 [2] = molecular target: T1, KDABL1 (Homo sapiens, UniProt P00519); assay: In cellulo translocation assay of KDABL1 to mitochondrial HT-TurbID-MoA (confocal); type: cell-based; design: KDABL1, 아미노산 239-512, Uniprot ID: P00519; expressed in transfected cells; host or cells: U2OS (translocation, A4); details: U2OS, 500 nM, 3 h
T1 sequence (P00519 239-512): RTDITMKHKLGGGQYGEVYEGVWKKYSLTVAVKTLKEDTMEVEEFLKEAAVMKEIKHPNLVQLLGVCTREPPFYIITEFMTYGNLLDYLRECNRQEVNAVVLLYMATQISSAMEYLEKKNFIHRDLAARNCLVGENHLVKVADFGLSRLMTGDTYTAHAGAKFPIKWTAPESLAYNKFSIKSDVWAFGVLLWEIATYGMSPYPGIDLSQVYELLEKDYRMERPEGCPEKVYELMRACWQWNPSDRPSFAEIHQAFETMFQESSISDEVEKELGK

CSK [3] = molecular target: T2, CSK (Homo sapiens, UniProt P41240); assay: PL-IP biotinylation of CSK-EGFP; type: cell-based
ABL2 = molecular target: T3, ABL2 (Homo sapiens, UniProt P42684); assay: PROCID mass analysis, ABL2; type: cell-based; details: ABL2, K562
T3 construct: endogenous in cells; host or cells: K562 stably expressing HT-V5-TurbID

ABL1 = assay: PROCID mass analysis, ABL1; type: cell-based, Homo sapiens; details: ABL1, K562
KDABL1 [4] = molecular target: T1, KDABL1; assay: Proximity biotinylation of HA-KDABL1 by HT-TurbID (PL-IP, western blot); type: cell-based; design: KDABL1, 아미노산 239-512, Uniprot ID: P00519; expressed in transfected cells; host or cells: HEK293T (PL-IP, A6); details: HEK293T, 500 nM, 3 h; biotin 100 μM, 30 min; SA-HRP western blot
[5] = test system: HT-TurbID stably expressing K562 cells (HT-TurbID를 안정적으로 발현하는 K562 세포주); assay: Biotinylation in K562 cells stably expressing HT-TurbID (streptavidin-HRP western blot); type: cell-based, human
BTK [6] = molecular target: T4, BTK (Homo sapiens, UniProt Q06187); assay: PROCID mass analysis, BTK; type: cell-based
T4 construct: endogenous in cells; host or cells: K562 stably expressing HT-V5-TurbID

BTK [7] = molecular target: T5, BTK (Mus musculus, UniProt P35991); assay: In cellulo translocation assay, BTK-mCherry to HT-TurbID-MoA; type: cell-based; design: host or cells: U2OS (translocation, A16; reproduced in COS-7)
[8] = test system: dasatinib binding proteins of K562 cells (K562 세포의 다사티닙 결합 단백질); assay: PROCID mass analysis of biotinylated proteins (dasatinib interactors, group I); type: cell-based, Homo sapiens; details: K562, 500 nM, 3 h
CSK [9] = molecular target: T2, CSK; assay: In cellulo translocation assay, CSK-EGFP to HT-TurbID-MoA; type: cell-based; design: host or cells: U2OS (translocation, A17; reproduced in COS-7)
SMARCA2 = molecular target: T6, SMARCA2 (Homo sapiens, UniProt P51531); assay: PROCID mass analysis, SMARCA2; type: cell-based
T6 construct: endogenous in cells; host or cells: K562 stably expressing HT-V5-TurbID

CSK [10] = molecular target: T2, CSK; assay: PROCID mass analysis, CSK; type: cell-based; design: endogenous in cells; host or cells: K562 stably expressing HT-V5-TurbID
RIOK1 = molecular target: T7, RIOK1 (Homo sapiens, UniProt Q9BRS2); assay: PROCID mass analysis, RIOK1; type: cell-based; details: RIOK1, K562
T7 construct: endogenous in cells; host or cells: K562 stably expressing HT-V5-TurbID
T7 sequence (Q9BRS2 1-568): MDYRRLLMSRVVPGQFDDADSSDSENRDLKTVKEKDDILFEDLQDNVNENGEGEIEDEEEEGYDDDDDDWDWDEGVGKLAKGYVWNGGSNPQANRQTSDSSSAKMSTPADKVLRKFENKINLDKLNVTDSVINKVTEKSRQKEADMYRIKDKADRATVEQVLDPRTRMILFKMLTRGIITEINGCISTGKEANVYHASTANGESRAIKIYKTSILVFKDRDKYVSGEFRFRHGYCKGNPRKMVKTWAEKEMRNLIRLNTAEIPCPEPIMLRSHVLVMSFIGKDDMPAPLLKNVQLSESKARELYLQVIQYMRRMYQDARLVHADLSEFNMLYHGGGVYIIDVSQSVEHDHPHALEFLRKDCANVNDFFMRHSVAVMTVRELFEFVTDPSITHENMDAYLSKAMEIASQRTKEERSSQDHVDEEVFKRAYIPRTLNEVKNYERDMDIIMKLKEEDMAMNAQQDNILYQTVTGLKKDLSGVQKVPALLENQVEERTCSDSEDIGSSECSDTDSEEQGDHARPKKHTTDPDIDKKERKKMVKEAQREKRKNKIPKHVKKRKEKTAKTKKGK

TOM20-KDABL1 = molecular target: T8, TOM20-KDABL1 (Homo sapiens, UniProt P00519); assay: In cellulo mitochondrial translocation of HT-TurbID to TOM20-KDABL1; type: cell-based; details: data not shown
T8 construct: KDABL1, 아미노산 239-512, Uniprot ID: P00519; expressed in transfected cells
T8 sequence (P00519 239-512): T1 sequence (P00519 239-512)

TOM20-HA-KDABL1 = molecular target: T9, TOM20-HA-KDABL1 (Homo sapiens, UniProt P00519); assay: Proximity biotinylation of TOM20-HA-KDABL1 by HT-TurbID; type: cell-based; details: HT-TurbID in cytosol; data not shown
T9 construct: KDABL1, 아미노산 239-512, Uniprot ID: P00519; expressed in transfected cells
T9 sequence (P00519 239-512): T1 sequence (P00519 239-512)

BTK [11] = molecular target: T5, BTK; assay: PL-IP biotinylation of BTK-mCherry; type: cell-based
CSK [12] = molecular target: T2, CSK; design: host or cells: U2OS (translocation, A17; reproduced in COS-7); HEK293T (PL-IP, A19); details: in vitro characterization; cited from earlier work
ABDSMARCA2 = molecular target: T10, ABDSMARCA2 (Homo sapiens, UniProt P51531); assay: Translocation and PL-IP assays with ATP binding domain of SMARCA2; type: cell-based; details: concluded from translocation of ABDSMARCA2 to mitochondria-targeted HT-TurbID
T10 construct: ABD SMARCA2(736-901aa 헬리카제-ATP 결합 도메인)-HA; expressed in transfected cells; host or cells: HEK293-AD

[13] = HEK293T, 3 h, SA-HRP western blot

T5 sequence (P35991 whole entry): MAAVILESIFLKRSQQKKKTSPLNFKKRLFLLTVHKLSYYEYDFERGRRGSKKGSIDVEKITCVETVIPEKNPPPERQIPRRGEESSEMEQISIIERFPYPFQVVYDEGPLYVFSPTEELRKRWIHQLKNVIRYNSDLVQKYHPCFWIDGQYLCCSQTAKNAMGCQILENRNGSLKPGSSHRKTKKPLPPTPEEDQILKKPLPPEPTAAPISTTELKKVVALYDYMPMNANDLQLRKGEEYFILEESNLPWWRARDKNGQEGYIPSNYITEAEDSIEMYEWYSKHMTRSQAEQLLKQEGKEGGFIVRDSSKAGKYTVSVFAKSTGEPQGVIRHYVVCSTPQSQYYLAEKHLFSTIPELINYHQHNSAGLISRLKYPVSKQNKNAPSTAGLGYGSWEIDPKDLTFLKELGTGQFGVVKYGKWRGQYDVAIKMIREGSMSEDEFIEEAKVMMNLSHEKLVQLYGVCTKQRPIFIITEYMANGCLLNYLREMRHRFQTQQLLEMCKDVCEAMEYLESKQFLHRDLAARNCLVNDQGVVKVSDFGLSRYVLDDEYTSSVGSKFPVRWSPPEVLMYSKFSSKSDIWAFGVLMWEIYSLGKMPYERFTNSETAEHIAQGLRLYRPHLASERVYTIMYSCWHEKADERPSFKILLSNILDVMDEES
T6 sequence (P51531 whole entry): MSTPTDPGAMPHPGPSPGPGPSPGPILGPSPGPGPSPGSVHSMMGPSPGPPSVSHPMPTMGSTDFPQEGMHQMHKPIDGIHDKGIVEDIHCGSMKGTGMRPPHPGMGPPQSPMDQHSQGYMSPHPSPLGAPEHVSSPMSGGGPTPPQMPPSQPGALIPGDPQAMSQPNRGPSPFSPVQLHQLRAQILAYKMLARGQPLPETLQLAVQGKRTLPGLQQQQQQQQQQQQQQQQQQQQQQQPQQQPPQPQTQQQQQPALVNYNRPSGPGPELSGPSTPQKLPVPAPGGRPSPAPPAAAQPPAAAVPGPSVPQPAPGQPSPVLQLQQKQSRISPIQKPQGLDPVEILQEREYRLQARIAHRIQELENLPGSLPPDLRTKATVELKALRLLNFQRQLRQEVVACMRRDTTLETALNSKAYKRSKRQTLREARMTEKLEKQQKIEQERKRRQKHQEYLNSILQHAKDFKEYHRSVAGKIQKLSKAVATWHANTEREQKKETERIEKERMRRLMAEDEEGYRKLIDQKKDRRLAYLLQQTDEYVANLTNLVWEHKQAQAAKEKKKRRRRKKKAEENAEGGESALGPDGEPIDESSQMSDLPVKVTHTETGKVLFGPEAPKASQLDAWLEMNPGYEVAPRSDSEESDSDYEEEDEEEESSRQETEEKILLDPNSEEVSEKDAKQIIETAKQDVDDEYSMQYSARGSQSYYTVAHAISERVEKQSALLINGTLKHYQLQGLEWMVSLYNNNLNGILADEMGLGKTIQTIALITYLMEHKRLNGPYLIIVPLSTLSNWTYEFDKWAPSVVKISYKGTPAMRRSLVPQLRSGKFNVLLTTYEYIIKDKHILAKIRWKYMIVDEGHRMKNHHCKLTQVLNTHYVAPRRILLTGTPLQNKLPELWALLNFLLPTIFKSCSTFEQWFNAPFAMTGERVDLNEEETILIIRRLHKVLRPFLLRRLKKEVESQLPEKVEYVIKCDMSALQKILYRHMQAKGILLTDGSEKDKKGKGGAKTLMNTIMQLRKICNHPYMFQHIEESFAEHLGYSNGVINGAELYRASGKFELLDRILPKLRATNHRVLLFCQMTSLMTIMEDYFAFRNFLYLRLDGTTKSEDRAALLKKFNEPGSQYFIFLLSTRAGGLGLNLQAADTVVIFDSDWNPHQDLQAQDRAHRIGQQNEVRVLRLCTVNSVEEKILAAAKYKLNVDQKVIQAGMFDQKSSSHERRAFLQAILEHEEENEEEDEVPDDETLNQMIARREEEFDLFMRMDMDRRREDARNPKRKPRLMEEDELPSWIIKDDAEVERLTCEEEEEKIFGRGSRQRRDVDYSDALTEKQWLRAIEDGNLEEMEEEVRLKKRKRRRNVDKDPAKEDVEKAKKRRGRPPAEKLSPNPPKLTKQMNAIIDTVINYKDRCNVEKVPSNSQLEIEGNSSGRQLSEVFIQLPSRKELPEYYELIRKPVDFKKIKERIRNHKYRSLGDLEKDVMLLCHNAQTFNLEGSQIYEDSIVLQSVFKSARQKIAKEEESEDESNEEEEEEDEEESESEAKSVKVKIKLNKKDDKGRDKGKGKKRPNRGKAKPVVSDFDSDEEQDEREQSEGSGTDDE
T4 sequence (Q06187 whole entry): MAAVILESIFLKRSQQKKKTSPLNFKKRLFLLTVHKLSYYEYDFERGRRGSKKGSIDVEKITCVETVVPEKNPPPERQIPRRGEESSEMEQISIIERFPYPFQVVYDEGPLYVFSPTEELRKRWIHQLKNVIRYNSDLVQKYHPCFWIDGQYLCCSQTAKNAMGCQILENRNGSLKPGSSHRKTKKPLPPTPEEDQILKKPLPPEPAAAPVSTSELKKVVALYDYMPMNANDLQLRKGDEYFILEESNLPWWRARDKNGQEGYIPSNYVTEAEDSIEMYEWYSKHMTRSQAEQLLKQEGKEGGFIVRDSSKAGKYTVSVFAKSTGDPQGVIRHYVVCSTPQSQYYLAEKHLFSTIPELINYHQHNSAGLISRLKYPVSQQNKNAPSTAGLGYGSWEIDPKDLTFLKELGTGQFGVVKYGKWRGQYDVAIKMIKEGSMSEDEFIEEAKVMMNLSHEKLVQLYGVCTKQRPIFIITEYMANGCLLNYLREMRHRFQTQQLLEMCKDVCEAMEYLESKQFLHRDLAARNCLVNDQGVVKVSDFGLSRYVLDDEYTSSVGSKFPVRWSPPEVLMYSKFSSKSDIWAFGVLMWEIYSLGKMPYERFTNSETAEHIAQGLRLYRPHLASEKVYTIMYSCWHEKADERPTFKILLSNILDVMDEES
T10 sequence (P51531 736-901): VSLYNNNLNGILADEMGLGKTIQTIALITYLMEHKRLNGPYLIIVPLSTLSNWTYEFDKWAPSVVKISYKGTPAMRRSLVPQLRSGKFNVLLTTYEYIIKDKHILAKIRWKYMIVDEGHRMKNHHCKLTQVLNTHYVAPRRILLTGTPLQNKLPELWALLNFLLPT
T3 sequence (P42684 whole entry): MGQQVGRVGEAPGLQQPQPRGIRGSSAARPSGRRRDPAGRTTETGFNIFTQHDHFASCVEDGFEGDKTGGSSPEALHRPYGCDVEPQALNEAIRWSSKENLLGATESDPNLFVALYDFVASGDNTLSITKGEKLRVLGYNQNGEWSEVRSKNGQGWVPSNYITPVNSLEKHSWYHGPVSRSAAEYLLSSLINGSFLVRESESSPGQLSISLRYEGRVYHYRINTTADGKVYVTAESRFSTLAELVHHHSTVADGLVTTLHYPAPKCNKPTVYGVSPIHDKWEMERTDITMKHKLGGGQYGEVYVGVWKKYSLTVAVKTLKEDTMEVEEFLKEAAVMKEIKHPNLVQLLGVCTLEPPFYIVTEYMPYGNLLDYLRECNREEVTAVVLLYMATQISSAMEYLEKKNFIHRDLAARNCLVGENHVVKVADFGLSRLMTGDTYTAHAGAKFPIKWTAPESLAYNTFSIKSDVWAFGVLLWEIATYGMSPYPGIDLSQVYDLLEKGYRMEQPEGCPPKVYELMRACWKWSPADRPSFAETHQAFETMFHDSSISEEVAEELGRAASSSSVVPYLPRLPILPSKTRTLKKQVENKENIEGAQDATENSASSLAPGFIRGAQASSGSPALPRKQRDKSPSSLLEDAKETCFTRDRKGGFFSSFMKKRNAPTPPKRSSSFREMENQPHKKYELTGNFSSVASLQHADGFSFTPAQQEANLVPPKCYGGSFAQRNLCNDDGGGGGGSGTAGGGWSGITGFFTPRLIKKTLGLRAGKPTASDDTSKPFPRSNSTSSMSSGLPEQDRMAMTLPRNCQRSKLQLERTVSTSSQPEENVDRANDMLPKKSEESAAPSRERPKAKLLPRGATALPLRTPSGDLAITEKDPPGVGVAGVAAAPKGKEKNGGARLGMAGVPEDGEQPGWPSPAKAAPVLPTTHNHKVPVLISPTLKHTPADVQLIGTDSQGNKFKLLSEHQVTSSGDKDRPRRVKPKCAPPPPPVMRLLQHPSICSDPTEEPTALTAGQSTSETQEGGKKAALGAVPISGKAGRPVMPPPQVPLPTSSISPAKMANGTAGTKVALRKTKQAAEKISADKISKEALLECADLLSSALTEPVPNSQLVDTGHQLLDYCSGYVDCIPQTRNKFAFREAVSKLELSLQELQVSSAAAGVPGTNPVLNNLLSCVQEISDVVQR

Compound: Cc1nc(Nc2ncc(C(=O)Nc3c(C)cccc3Cl)s2)cc(N2CCN(CCOC(=O)NCCOCCOCCOCCCCCCCl)CC2)n1 [DA3, 2-(4-(6-((5-((2-chloro-6-methylphenyl)carbamoyl)thiazol-2-yl)amino)-2-methylpyrimidin-4-yl)piperazin-1-yl)ethyl(2-(2-(2-((6-chlorohexyl)oxy)ethoxy)ethoxy)ethyl)carbamate trifluoroacetate salt]
GI50 (K562 cells (K562 세포)): 서브마이크로몰 범위 | binding to HaloTag [1]: 할로택에 잘 결합한다 | GI50 (Ba/F3 cells (Ba/F3 세포)): 서브마이크로몰 범위

Compound: Cc1nc(Nc2ncc(C(=O)Nc3c(C)cccc3Cl)s2)cc(N2CCN(CCOC(=O)NCCOCCOCCOCCOCCOCCCCCCCl)CC2)n1 [DA5, 2-(4-(6-((5-((2-chloro-6-methylphenyl)carbamoyl)thiazol-2-yl)amino)-2-methylpyrimidin-4-yl)piperazin-1-yl)ethyl(21-chloro-3,6,9,12,15-pentaoxahenicosyl)carbamate trifluoroacetate salt]
translocation of KDABL1 from cytosol to mitochondria (KDABL1 [2]): KDABL1의 효율적인 전위 | DA5-dependent biotinylation (CSK [3]; CSK, HT-TurbID-MoA instead of HT-TurbID, data not shown): 그대로 재현되었다 | co-purification of HT-TurbID with bait protein (CSK [3]; CSK-EGFP, anti-HA pulldown): DA5 처리 샘플에서만 미끼 단백질과 공동 정제되었다 | biotinylation of enriched CSK-EGFP (CSK [3]; [13]): DA5 처리 하에서만 바이오틴화되었다 | GI50 (K562 cells (K562 세포)): 서브마이크로몰 범위 | biotinylation by HT-TurbID in DA5 treated sample (ABL2): 고도로 바이오틴화 | biotinylation by HT-TurbID in DA5 treated sample (ABL1): 고도로 바이오틴화 | biotinylation of KDABL1 by HT-TurbID (KDABL1 [4]): DA5로 처리되었을 때만 KDABL1이 HT-TurbID에 의해 바이오틴화 된다 | binding to HaloTag [1]: 할로택에 잘 결합한다 | biotinylation reaction [5]: 강력한 바이오틴화 반응 | streptavidin-HRP western blot pattern compared with DA and DMSO [5]: 미묘하게 차이가 있었다 | biotinylation by HT-TurbID in DA5 treated sample (BTK [6]; K562): 고도로 바이오틴화 | biotinylated lysine residues (BTK [6]; MS analysis): 다수의 라이신 잔기가 DA5 처리된 HT-TurbID에 의해 바이오틴화 된다 | DA5-dependent translocation (BTK [7]; BTK, COS-7, data not shown): 그대로 재현되었다 | Pearson's correlation coefficient (BTK [7]; BTK, U2OS, after DA5 treatment): 급격히 증가 | translocation from cytosol to mitochondria (BTK [7]; BTK-mCherry, U2OS, 500 nM, 3 h): 세포질에서 미토콘드리아로 전위되는 것이 확인되었다 | number of proteins reproducibly biotinylated only on DA5 treatment ([8]; biotin 50 μM 30 min, P < 0.05, Log2(FC) > 1.2): 33 | number of proteins selected as dasatinib interactors (group I) ([8]; includes SMARCA2): 34 | DA5-dependent translocation (CSK [9]; CSK, COS-7, data not shown): 그대로 재현되었다 | Pearson's correlation coefficient (CSK [9]; CSK, U2OS, after DA5 treatment): 급격히 증가 | translocation from cytosol to mitochondria (CSK [9]; CSK-EGFP, U2OS, 500 nM, 3 h): 세포질에서 미토콘드리아로 전위되는 것이 확인되었다 | biotinylation by HT-TurbID in DA5 treated sample (SMARCA2; SMARCA2, K562): 고도로 바이오틴화 | fold change (FC) of biotinylation (SMARCA2; SMARCA2, K562, DA5 treated vs control, highest fold change): 5.14 | biotinylation by HT-TurbID in DA5 treated sample (CSK [10]; K562): 고도로 바이오틴화 | biotinylated lysine residues (CSK [10]; MS analysis): 다수의 라이신 잔기가 DA5 처리된 HT-TurbID에 의해 바이오틴화 된다 | biotinylation by HT-TurbID in DA5 treated sample (RIOK1): 고도로 바이오틴화 | mitochondrial translocation of HT-TurbID to TOM20-KDABL1 (TOM20-KDABL1): 미토콘드리아 전위가 확인되었다 | biotinylation of TOM20-HA-KDABL1 by HT-TurbID (TOM20-HA-KDABL1): 재현 가능한 DA5 의존성 바이오틴화를 관찰 | DA5-dependent biotinylation (BTK [11]; BTK, HT-TurbID-MoA instead of HT-TurbID, data not shown): 그대로 재현되었다 | co-purification of HT-TurbID with bait protein (BTK [11]; BTK-mCherry, anti-HA pulldown): DA5 처리 샘플에서만 미끼 단백질과 공동 정제되었다 | biotinylation of enriched BTK-mCherry (BTK [11]; [13]): DA5 처리 하에서만 바이오틴화되었다 | GI50 (Ba/F3 cells (Ba/F3 세포)): 서브마이크로몰 범위

physical binding affinity of ABDSMARCA2 for dasatinib (ABDSMARCA2): 물리적 결합 친화성을 가지고 있으며
Compound: Cc1nc(Nc2ncc(C(=O)Nc3c(C)cccc3Cl)s2)cc(N2CCN(CCO)CC2)n1 [다사티닙]
binding affinity for dasatinib (CSK [12]): 다사티닙에 대한 결합 친화력이 있음 | biotinylation reaction [5]: 강력한 바이오틴화 반응
